Assay results reported in ChEMBL document CHEMBL4118090, “Dihydrothieno-pyridin-one and Tetrahydrothieno-azepinone Inhibitors of Enhancer of Zeste Homologue 2” (ACS Med Chem Lett, 2017).

Target: Histone-lysine N-methyltransferase EZH2 (Homo sapiens, UniProt Q15910)
Assay: Inhibition of methyltransferase activity of flag-tagged EZH2 in human PRC2 complex expressed in Sf9 insect cells using biotinylated histone H3K27 peptide as substrate after 60 mins in presence of 3H-SAM by scintillation proximity assay

Histone-lysine N-methyltransferase EZH2, sequence (Q15910 whole entry): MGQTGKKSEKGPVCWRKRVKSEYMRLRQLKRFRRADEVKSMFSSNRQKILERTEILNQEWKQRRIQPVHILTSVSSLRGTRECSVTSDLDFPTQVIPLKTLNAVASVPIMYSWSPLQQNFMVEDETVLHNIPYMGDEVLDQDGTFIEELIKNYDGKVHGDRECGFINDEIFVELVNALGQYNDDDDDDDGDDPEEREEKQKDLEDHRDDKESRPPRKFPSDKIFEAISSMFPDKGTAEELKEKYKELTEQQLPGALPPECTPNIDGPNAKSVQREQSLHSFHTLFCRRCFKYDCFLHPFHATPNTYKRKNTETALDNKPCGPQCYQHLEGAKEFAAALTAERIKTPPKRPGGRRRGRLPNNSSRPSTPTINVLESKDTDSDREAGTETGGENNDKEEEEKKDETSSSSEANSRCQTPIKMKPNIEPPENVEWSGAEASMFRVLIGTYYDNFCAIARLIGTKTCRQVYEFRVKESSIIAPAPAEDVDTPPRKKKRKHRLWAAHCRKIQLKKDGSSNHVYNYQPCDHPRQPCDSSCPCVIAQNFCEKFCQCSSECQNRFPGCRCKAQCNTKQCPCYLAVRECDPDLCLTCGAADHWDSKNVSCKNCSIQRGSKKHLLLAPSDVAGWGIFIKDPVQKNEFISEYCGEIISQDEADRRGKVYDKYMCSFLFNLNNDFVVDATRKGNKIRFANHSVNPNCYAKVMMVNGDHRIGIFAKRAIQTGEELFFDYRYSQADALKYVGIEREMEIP

IC50, ≤ 10 nM:
CC[C@@H](c1sc2c(c1C)CN(C(=O)c1c(C)cc(C)[nH]c1=O)CC2)C1CCN(Cc2ccccn2)CC1
CC[C@@H](c1scc(C(=O)NCc2c(C)cc(C)[nH]c2=O)c1C)C1CCN(Cc2ccc(Cl)cn2)CC1
CC[C@@H](c1sc2c(c1C)C(=O)N(Cc1c(C)cc(C)[nH]c1=O)CC2)C1CCN(Cc2ccccc2)CC1
Cc1cc(C)c(CN2CCCc3sc([C@H](C)C4CCN(Cc5ccccn5)CC4)c(C)c3C2)c(=O)[nH]1
CC[C@@H](c1sc2c(c1C)CN(Cc1c(C)cc(C)[nH]c1=O)CC2)C1CCN(Cc2ccnc(OC)c2)CC1
Cc1cc(C)c(CN2CCCc3sc([C@H](C)C4CCN(CC5CCCCC5)CC4)c(C)c3C2)c(=O)[nH]1
